According to patent publication US20250197359A1, “CANNABINOID RECEPTOR MODULATING COMPOUNDS” (The U.S.A., as Represented by the Secretary, Department of …, priority 2022, published 2025):
Values joined by “and” are separate entries in the source; they are usually repeats but may differ in a detail not shown here. Equal entries are not always repeated.

Key:
Brain/CB1 = molecular target: T1, Brain/CB1 (Mus musculus, UniProt P47746); test: Functional GTPγS binding, Brain/CB1; type: biochemical
T1 construct: from tissue; host or cells: mouse brain membranes
T1 sequence (P47746 whole entry): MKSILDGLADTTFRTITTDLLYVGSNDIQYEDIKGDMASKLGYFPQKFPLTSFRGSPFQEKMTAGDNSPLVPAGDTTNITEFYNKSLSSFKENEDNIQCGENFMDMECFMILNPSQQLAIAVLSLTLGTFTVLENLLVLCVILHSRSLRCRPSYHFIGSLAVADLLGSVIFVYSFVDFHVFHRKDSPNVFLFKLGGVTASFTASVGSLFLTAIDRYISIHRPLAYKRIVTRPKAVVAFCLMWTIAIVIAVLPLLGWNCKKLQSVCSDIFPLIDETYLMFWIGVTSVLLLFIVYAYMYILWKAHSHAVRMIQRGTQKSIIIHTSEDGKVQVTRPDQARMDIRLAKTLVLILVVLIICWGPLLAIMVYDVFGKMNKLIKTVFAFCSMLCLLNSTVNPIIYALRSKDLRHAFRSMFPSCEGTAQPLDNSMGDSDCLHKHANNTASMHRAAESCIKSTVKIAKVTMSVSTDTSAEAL
Text: Furthermore, the intermediates urea compounds 8a-m were chlorinated with phosphorus oxychloride in the presence of DIPEA base to form imidoyl chloride intermediate and reacted with acetamidine hydrochloride/methyl carbamimidothioate iodide/methyl carbamimidoselenoate iodide and other amines to furnish the target compounds (10a-34b) (Scheme 2, FIG. 2, Scheme 5, FIG. 5). The urea derivatives were converted to the thiourea derivatives 9a-9d by employing sodium thiosulfate. Compound 8a-b, 8e-f were converted to corresponding thiourea by employing sodium thiosulfate dissolved in water dioxane mixture and the reaction was heated to 85° C. for 2 h. […] The binding constant for the synthesized compounds were determined by using radioligand binding assay in mouse brain membranes as well as the target compounds were evaluated in vitro at the human CB1 receptor, stably expressed into Chinese hamster ovary (CHO) cells as well as mouse brain membrane CB1.

CB1 = CB1 (UniProt P21554); test: CB1 radioligand binding assay; design: species or system human; settings: read-out: Ki (CB1)
Method: The target compounds were evaluated in vitro at the human CB1 receptor, stably expressed into Chinese hamster ovary (CHO) cells by utilizing radioligand binding studies.
The binding constant for the synthesized compounds were determined by using radioligand binding assay in mouse brain membranes as well as the target compounds were evaluated in vitro at the human CB1 receptor, stably expressed into Chinese hamster ovary (CHO) cells as well as mouse brain membrane CB1. […]

Row | Compound | IC50 (Brain/CB1) [nM] | Ki (CB1)
1 | C/C(N)=N\C(=N\S(=O)(=O)c1cccc(C(F)(F)F)c1)N1CCC(c2ccccc2)C(c2ccc(Cl)cc2)=N1 (stereo not drawn) [Compound 10c, (Z)—N—((E)-1-aminoethylidene)-3-(4-chlorophenyl)-4-phenyl-N′-((3-(trifluoromethyl)phenyl)sulfonyl)-5,6-dihydropyridazine-1 (4H)-carboximidamide] | 105 | 28.3 nM
2 | C/C(N)=N\C(=N\S(=O)(=O)c1ccc2ccccc2c1)N1CCC(c2ccccc2)C(c2ccc(Cl)cc2)=N1 (stereo not drawn) [Compound 10f, (Z)—N—((E)-1-aminoethylidene)-3-(4-chlorophenyl)-N′-(naphthalen-2-ylsulfonyl)-4-phenyl-5,6-dihydropyridazine-1 (4H)-carboximidamide] | 132 | 31.4 nM
3 | C/C(N)=N\C(=N\S(=O)(=O)c1ccccc1)N1CCC(c2ccccc2)C(c2ccc(Cl)cc2)=N1 (stereo not drawn) [Compound 10g, (Z)—N—((E)-1-aminoethylidene)-3-(4-chlorophenyl)-4-phenyl-N′-(phenylsulfonyl)-5,6-dihydropyridazine-1 (4H)-carboximidamide] | 357 | 128 nM and 212 nM
4 | COc1ccc(S(=O)(=O)/N=C(/N=C(\C)N)N2CCC(c3ccccc3)C(c3ccc(Cl)cc3)=N2)cc1 (stereo not drawn) [Compound 10h, (Z)—N—((E)-1-aminoethylidene)-3-(4-chlorophenyl)-N′-((4-methoxyphenyl)sulfonyl)-4-phenyl-5,6-dihydropyridazine-1 (4H)-carboximidamide] | 357 | 105 nM
5 | C/C(N)=N\C(=N\S(=O)(=O)c1ccc(I)cc1)N1CCC(c2ccccc2)C(c2ccc(Cl)cc2)=N1 (stereo not drawn) [Compound 10i, (Z)—N—((E)-1-aminoethylidene)-3-(4-chlorophenyl)-N′-((4-iodophenyl)sulfonyl)-4-phenyl-5,6-dihydropyridazine-1 (4H)-carboximidamide] | 118 | 43 nM
6 | C/C(N)=N\C(=N\S(=O)(=O)c1ccc(F)cc1)N1CCC(c2ccccc2)C(c2ccc(Cl)cc2)=N1 (stereo not drawn) [Compound 10j, (Z)—N—((E)-1-aminoethylidene)-3-(4-chlorophenyl)-N′-((4-fluorophenyl)sulfonyl)-4-phenyl-5,6-dihydropyridazine-1 (4H)-carboximidamide] | 182 | 59.3 nM
7 | C/C(N)=N\C(=N\S(=O)(=O)c1ccccc1C(F)(F)F)N1CCC(c2ccccc2)C(c2ccc(Cl)cc2)=N1 (stereo not drawn) [Compound 10k, (Z)—N—((E)-1-aminoethylidene)-3-(4-chlorophenyl)-4-phenyl-N′-((2-(trifluoromethyl)phenyl)sulfonyl)-5,6-dihydropyridazine-1 (4H)-carboximidamide] | 125 | 50.6 nM
8 | CC(C)(C)/C(N)=N/C(=N/S(=O)(=O)c1ccc(C(F)(F)F)cc1)N1CCC(c2ccccc2)C(c2ccc(Br)cc2)=N1 (stereo not drawn) [Compound 10x, (Z)—N—((Z)-1-amino-2,2-dimethylpropylidene)-3-(4-bromophenyl)-4-phenyl-N′-((4-(trifluoromethyl)phenyl)sulfonyl)-5,6-dihydropyridazine-1 (4H)-carboximidamide] | 35 | 20.3 nM
9 | CC(C)(C)/C(N)=N/C(=N/S(=O)(=O)c1ccc(C(F)(F)F)cc1)N1CCC(c2ccccc2)C(c2ccc(F)cc2)=N1 (stereo not drawn) [Compound 10zb, (Z)—N—((Z)-1-amino-2,2-dimethylpropylidene)-3-(4-fluorophenyl)-4-phenyl-N′-((4-(trifluoromethyl)phenyl)sulfonyl)-5,6-dihydropyridazine-1 (4H)-carboximidamide] | 478 | 75.6 nM

Other lines, results leading:

Row | IC50 (Brain/CB1) [nM] | Ki (CB1) | Compound
10 | 197 | 33 nM | N/C(=N\C(=N\S(=O)(=O)c1ccc(C(F)(F)F)cc1)N1CCC(c2ccccc2)C(c2ccc(Cl)cc2)=N1)c1ccccc1 (stereo not drawn) [Compound 10r, (Z)—N—((Z)-amino (phenyl)methylene)-3-(4-chlorophenyl)-4-phenyl-N′-((4-(trifluoromethyl)phenyl)sulfonyl)-5,6-dihydropyridazine-1 (4H)-carboximidamide]
11 | 25 | 7.4 nM | N/C(=N\C(=N\S(=O)(=O)c1ccc(C(F)(F)F)cc1)N1CCC(c2ccccc2)C(c2ccc(Cl)cc2)=N1)c1ccccc1F (stereo not drawn) [Compound 10t, (Z)—N—((Z)-amino (2-fluorophenyl)methylene)-3-(4-chlorophenyl)-4-phenyl-N′-((4-(trifluoromethyl)phenyl)sulfonyl)-5,6-dihydropyridazine-1 (4H)-carboximidamide]
12 | 107 | 27.3 nM | N/C(=N\C(=N\S(=O)(=O)c1ccc(C(F)(F)F)cc1)N1CCC(c2ccccc2)C(c2ccc(Cl)cc2)=N1)c1ccc(F)cc1 (stereo not drawn) [Compound 10u, (Z)—N—((Z)-amino (4-fluorophenyl)methylene)-3-(4-chlorophenyl)-4-phenyl-N′-((4-(trifluoromethyl)phenyl)sulfonyl)-5,6-dihydropyridazine-1 (4H)-carboximidamide]
13 | 26 | 7 nM | N/C(=N\C(=N\S(=O)(=O)c1ccc(C(F)(F)F)cc1)N1CCC(c2ccccc2)C(c2ccc(Cl)cc2)=N1)c1ccccn1 (stereo not drawn) [Compound 10v, (Z)—N—((Z)-amino (pyridin-2-yl)methylene)-3-(4-chlorophenyl)-4-phenyl-N′-((4-(trifluoromethyl)phenyl)sulfonyl)-5,6-dihydropyridazine-1 (4H)-carboximidamide]
14 | 234 | 140 nM | N/C(=N\C(=N\S(=O)(=O)c1ccc(C(F)(F)F)cc1)N1CCC(c2ccccc2)C(c2ccc(Cl)cc2)=N1)c1cccs1 (stereo not drawn) [Compound 10w, (Z)—N—((Z)-amino (thiophen-2-yl)methylene)-3-(4-chlorophenyl)-4-phenyl-N′-((4-(trifluoromethyl)phenyl)sulfonyl)-5,6-dihydropyridazine-1 (4H)-carboximidamide]
15 | 92 | 57.2 nM | C/C(N)=N/C(=N/S(=O)(=O)c1ccc(C(F)(F)F)cc1)N1CCC(c2ccccc2)C(c2ccc(Br)cc2)=N1 (stereo not drawn) [Compound 10y, (Z)—N—((Z)-1-aminoethylidene)-3-(4-bromophenyl)-4-phenyl-N′-((4-(trifluoromethyl)phenyl)sulfonyl)-5,6-dihydropyridazine-1 (4H)-carboximidamide]
16 | 49 | 8.25 nM | N/C(=N\C(=N\S(=O)(=O)c1ccc(C(F)(F)F)cc1)N1CCC(c2ccccc2)C(c2ccc(Br)cc2)=N1)c1ccccc1F (stereo not drawn) [Compound 10z, (Z)—N—((Z)-amino (2-fluorophenyl)methylene)-3-(4-bromophenyl)-4-phenyl-N′-((4-(trifluoromethyl)phenyl)sulfonyl)-5,6-dihydropyridazine-1 (4H)-carboximidamide]
17 | 26 | 9.18 nM | N/C(=N\C(=N\S(=O)(=O)c1ccc(C(F)(F)F)cc1)N1CCC(c2ccccc2)C(c2ccc(Br)cc2)=N1)c1ccc(F)cc1F (stereo not drawn) [Compound 10za, (Z)—N—((Z)-amino (2,4-difluorophenyl)methylene)-3-(4-bromophenyl)-4-phenyl-N′-((4-(trifluoromethyl)phenyl)sulfonyl)-5,6-dihydropyridazine-1 (4H)-carboximidamide]
18 | 115 | 26 nM | N/C(=N\C(=N\S(=O)(=O)c1ccc(C(F)(F)F)cc1)N1CCC(c2ccccc2)C(c2ccc(F)cc2)=N1)c1ccccc1F (stereo not drawn) [Compound 10zd, (Z)—N—((Z)-amino (2-fluorophenyl)methylene)-3-(4-fluorophenyl)-4-phenyl-N′-((4-(trifluoromethyl)phenyl)sulfonyl)-5,6-dihydropyridazine-1 (4H)-carboximidamide]
